In one data set the test system is HCC cells SNU398. In words: CCK-8 cell proliferation assay, SNU398 cells. The class given is cell-based. The following applies: for IC50: Homo sapiens, SNU-398, SNU398 cells (high RECQL4 expression), 48 h culture, CCK-8, OD 450 nm, Mean ± S.E.M; for IC50 on HCC cells SNU398 compared with IC50 on hepatocytes LO2 (selectivity in words): SNU398 versus LO2, CCK-8, 48 h. The procedure: (§1) The effects of the above-prepared rhein amide derivatives on cell proliferation were detected by a CCK-8 kit.
(§2) The CCK-8 kit can evaluate a proliferation activity of cells by detecting an absorbance at a 450 nm wavelength. SNU398 and LO2 cells were digested to obtain a cell suspension, the cell suspension was diluted with a medium to a density of about 5×10^3 cells/well, 100 µl of cell liquid was added to each well, and a blank group and a negative control group were set up. About 1.0000 mg of the derivative was added in a 0.5 mL EP tube, mixed with dimethyl sulfoxide (DMSO) to prepare a 5×10^-2 M stock solution, and stored at -20° C.
(§3) The stock solutions of 21 compounds prepared in the examples and comparative examples were diluted to final concentrations of 100 µmol/L, 20 µmol/L, 4 µmol/L, 0.8 µmol/L, and 0.16 µmol/L separately using a concentration gradient stepwise dilution method. An original medium in a 96-well plate was discarded by aspiration, 100 µl of the dilutions of the 17 compounds were added to the 96-well plate, and three parallel wells were set up. The dilutions were culture in a cell culture incubator for 48 h. […] A stronger inhibitory ability led to a lower IC50 value, and results were listed in Table 1; statistical analysis and drawing of experimental data was conducted using Graphpad-prism 6.0 software, and a mean ± standard deviation was expressed as (Mean ± S.E.M).
In general terms: Tetrazolium dyes change colour on reduction, which living cells bring about.

The test system of another data set is hepatocytes LO2. Kind of data set: CCK-8 cell proliferation assay, LO2 cells. The class given is cell-based. The settings on record: Hepatocyte, 48 h culture, CCK-8, OD 450 nm, Mean ± S.E.M. Here is the method:
as §1, §2, §3

For orientation: melting point means the temperature of the solid-liquid transition. As usually defined, the IC50 is the concentration at which inhibition is half-maximal. A high value points to a need for much substance.

In the case of `CCOC(=O)C(CC(C)C)NC(=O)c1cc(O)c2c(c1)C(=O)c1cccc(O)c1C2=O` (centres unmarked) [Comparative Example 3, ethyl(4,5-dihydroxy-9,10-dioxo-9,10-dihydroanthracene-2-carbonyl)leucinate], the melting point is 167.9 to 170 °C. The compound also displayed an IC50 in the data set on HCC cells SNU398 of 188 ± 94.4 µM. It took 57.1 ± 3.25 µM to reach half-maximal inhibition in the data set on hepatocytes LO2 (IC50).

Turning to `CCC(C)C(NC(=O)c1cc(O)c2c(c1)C(=O)c1cccc(O)c1C2=O)C(=O)OC` (centres unmarked) [Comparative Example 2, methyl 2-(4,5-dihydroxy-9,10-dioxy-9,10-dihydroanthracene-2-carboxamide)-3-methylvalerate], the melting point lay in the range of 179.7 to 182.3 °C. Besides, it took 470 ± 84.2 µM to reach half-maximal inhibition in the data set with HCC cells SNU398 (IC50). For the same compound, the half-maximal inhibitory concentration (IC50) in the data set with hepatocytes LO2 was found to be 80.4 ± 2.36 µM.

In the data set with hepatocytes LO2, `CC(C)CNC(=O)c1cc(O)c2c(c1)C(=O)c1cccc(O)c1C2=O` [Comparative Example 8, 4,5-dihydroxy-N-isobutyl-9,10-dioxy-9,10-dihydroanthracene-2-carboxamide] had a half-inhibitory concentration (IC50) of 118 ± 12.3 µM.

As to `CCOC(=O)C(Cc1ccccc1)NC(=O)c1cc(O)c2c(c1)C(=O)c1cccc(O)c1C2=O` (centres unmarked) [Comparative Example 5, ethyl (4,5-dihydroxy-9,10-dioxy-9,10-dihydroanthracene-2-carbonyl) phenylalaninate], the melting point lay in the range of 171 to 172.7 °C. The compound further displayed an IC50 with HCC cells SNU398 of 166 ± 7.62 µM. Also, in the data set on hepatocytes LO2, the IC50 came to 228 ± 7.25 µM.

`CCOC(=O)C(NC(=O)c1cc(O)c2c(c1)C(=O)c1cccc(O)c1C2=O)C(C)CC` (centres unmarked) [Comparative Example 4] yielded a melting point of 167 to 167.5 °C. In addition, 47.1 ± 11.5 µM corresponded to half-maximal inhibition in the data set on HCC cells SNU398 (IC50). This compound also displayed an IC50 in the data set with hepatocytes LO2 of 18.2 ± 1.56 µM.

In turn, `CCOC(=O)CC(NC(=O)c1cc(O)c2c(c1)C(=O)c1cccc(O)c1C2=O)C(=O)OCC` (centres unmarked) [Example 4, diethyl(4,5-dihydroxy-9,10-dioxo-9,10-dihydroanthracene-2-carbonyl)aspartate] registered a melting point of 174.7 to 175.2 °C. Besides, in the data set on HCC cells SNU398, the half-inhibitory concentration (IC50) is 27.9 ± 3.45 µM and the “IC50 on HCC cells SNU398 compared with IC50 on hepatocytes LO2 (selectivity in words)” value (from here on “IC50 … (selectivity in words)”) was “much smaller than the IC50 on hepatocytes LO2”. The compound further yielded a half-maximal inhibitory concentration (IC50) in the data set on hepatocytes LO2 of 117 µM.

Regarding `COc1ccc(CNC(=O)c2cc(O)c3c(c2)C(=O)c2cccc(O)c2C3=O)cc1` [Comparative Example 9, 4,5-dihydroxy-N-(4-methoxybenzyl)-9,10-dioxy-9,10-dihydroanthracene-2-carboxamide], the melting point lay within 244.5 to 249.4 °C. In the data set on HCC cells SNU398, this compound displayed an IC50 of 111 ± 12.5 µM. Further, in the data set with hepatocytes LO2, the half-inhibitory concentration (IC50) came out at 106 ± 9.72 µM.

Take `CCCCNC(=O)c1cc(O)c2c(c1)C(=O)c1cccc(O)c1C2=O` [Example 6, N-butyl-4,5-dihydroxy-9,10-dioxy-9,10-dihydroanthracene-2-carboxamide]: the melting point lay within 215.2 to 215.9 °C. Further, in the data set with HCC cells SNU398, the concentration for half-maximal inhibition (IC50) is 5.85 ± 0.49 µM and the “IC50 … (selectivity in words)” value is “much smaller than the IC50 on hepatocytes LO2”. In the data set with hepatocytes LO2, this compound gave a half-inhibitory concentration (IC50) of 113 ± 8.56 µM.

On to `COC(=O)C(CC(C)C)NC(=O)c1cc(O)c2c(c1)C(=O)c1cccc(O)c1C2=O` (centres unmarked) [Comparative Example 1, methyl (4,5-dihydroxy-9,10-dioxo-9,10-dihydroanthracene-2-carbonyl)leucine], for which the melting point fell in the range of 175.1 to 176.3 °C. Also, inhibition in the data set on HCC cells SNU398 was half-maximal at 25.9 ± 6.94 µM (IC50). This compound also registered a half-maximal inhibitory concentration (IC50) with hepatocytes LO2 of 0.81 ± 0.16 µM.

In turn, `CCOC(=O)CCC(NC(=O)c1cc(O)c2c(c1)C(=O)c1cccc(O)c1C2=O)C(=O)OCC` (centres unmarked) [Example 3, diethyl(4,5-dihydroxy-9,10-dioxo-9,10-dihydroanthracene-2-carbonyl) glutamate] came in with a melting point of 202 to 202.3 °C. In addition, the IC50 in the data set on HCC cells SNU398 was 66.8 ± 2.21 µM. Besides, the IC50 with hepatocytes LO2 worked out at 114 ± 4.11 µM.

In turn, `COC(=O)C(C)NC(=O)c1cc(O)c2c(c1)C(=O)c1cccc(O)c1C2=O` (centres unmarked) [Example 1, methyl(4,5-dihydroxy-9,10-dioxy-9,10-dihydroanthracene-2-carbonyl) alaninate] gave a melting point of 236.3 to 237.9 °C. Further, in the data set with HCC cells SNU398, the concentration for half-maximal inhibition (IC50) came out at 0.46 ± 0.08 µM and the “IC50 … (selectivity in words)” value is recorded as “much smaller than the IC50 on hepatocytes LO2”. In the data set on hepatocytes LO2, this compound showed an IC50 of 5.41 µM.

Compound `CCOC(=O)N1CCN(C(=O)c2cc(O)c3c(c2)C(=O)c2cccc(O)c2C3=O)CC1` [Example 7] yielded a melting point of 222.2 to 222.8 °C. This compound also came in with an IC50 in the data set with HCC cells SNU398 of 19 ± 1.96 µM. Besides, the midpoint of inhibition in the data set on hepatocytes LO2, the IC50, lay at 26.3 ± 15.8 µM.

`CCOC(=O)C(CCSC)NC(=O)c1cc(O)c2c(c1)C(=O)c1cccc(O)c1C2=O` (centres unmarked) [Comparative Example 6, ethyl(4,5-dihydroxy-9,10-dioxo-9,10-dihydroanthracene-2-carbonyl)methioninate]: the melting point was in the range of 177.2 to 178 °C. Further, in the data set with HCC cells SNU398, 19.8 ± 1.23 µM corresponded to half-maximal inhibition (IC50). In addition, half-maximal inhibition with hepatocytes LO2 (IC50) required 7.77 ± 0.45 µM.

With `CCOC(=O)C(CC)NC(=O)c1cc(O)c2c(c1)C(=O)c1cccc(O)c1C2=O` (centres unmarked) [Example 2, ethyl 2-(4,5-dihydroxy-9,10-dioxy-9,10-dihydroanthracene-2-carboxamide)butanoate], the melting point fell in the range of 196.7 to 197.2 °C. Further, in the data set with HCC cells SNU398, the half-inhibitory concentration (IC50) stood at 8.81 ± 0.78 µM and the “IC50 … (selectivity in words)” value was “much smaller than the IC50 on hepatocytes LO2”. Besides, the IC50 in the data set on hepatocytes LO2 came out at 104 ± 9.36 µM.

`CCOC(=O)C(NC(=O)c1cc(O)c2c(c1)C(=O)c1cccc(O)c1C2=O)C(C)C` (centres unmarked) [Comparative Example 7, ethyl(4,5-dihydroxy-9,10-dioxo-9,10-dihydroanthracene-2-carbonyl)valerate] came in with a melting point of 202.1 to 202.7 °C. This compound returned a 50% inhibitory concentration (IC50) with HCC cells SNU398 of 161 ± 4.53 µM. Further, in the data set with hepatocytes LO2, the 50% inhibitory concentration (IC50) was determined as 13.7 ± 0.89 µM.

`CCCNC(=O)c1cc(O)c2c(c1)C(=O)c1cccc(O)c1C2=O` [Example 5, 4,5-dihydroxy-9,10-dioxo-n-propyl-9,10-dihydroanthracene-2-carboxamide] registered a melting point of 264.1 to 265 °C. This compound came in with a half-maximal inhibitory concentration (IC50) with HCC cells SNU398 of 116 ± 5.25 µM. This compound also yielded an IC50 in the data set on hepatocytes LO2 of 228 ± 10.8 µM.

For the compound `CC(=O)c1ccc(N2CCN(C(=O)c3cc(O)c4c(c3)C(=O)c3cccc(O)c3C4=O)CC2)cc1` [Comparative Example 10, 3-(4-(4-acetylphenyl)piperazin-1-carbonyl)-1,8-dihydroxyanthracene-9,10-dione], the melting point was in the range of 270.1 to 272.2 °C. Besides, the IC50 with HCC cells SNU398 was 222 ± 18.7 µM. Also, the half-maximal inhibitory concentration (IC50) with hepatocytes LO2 was 104 ± 9.96 µM.

The values are drawn from patent US20230174497A1, “RHEIN AMIDE DERIVATIVE AND PREPARATION METHOD AND USE THEREOF, AND INHIBITOR OF HEPATOCELLULAR CARCINOMA (HCC) WITH SPECIFIC RECQL4 EXPRESSION” (Shandong First Medical University & Shandong Academy of …, priority 2021, published 2023).
